Measurements reported in BindingDB's records for doi:10.1021/jm060460o (University of Michigan, 2006).

Assay: Inhibition of growth of human PC3 cell overexpressing Bcl2

Row | IC50 [µM] | Compound
1 | 7 | CC(C)c1cc(C(=O)Nc2ccccc2)c(O)c(O)c1O [2,3,4-trihydroxy-5-isopropyl-N-phenyl-benzamide]
2 | 0.2 | CC(C)c1ccccc1Cc1cc(C(=O)Nc2ccc(S(=O)(=O)c3ccccc3C(C)(C)C)cc2)c(O)c(O)c1O [(N-[(2-tert-butylbenzenesulfonyl)phenyl]-2,3,4-trihydroxy-5-(2-isopropylbenzyl)benzamide]
3 | 4 | O=C(Nc1ccc(S(=O)(=O)c2ccccc2)cc1)c1cc(Cc2ccccc2)c(O)c(O)c1O [N-(benzenesulfonyl-phenyl)-2,3,4-trihydroxy-5-benzyl-benzamide]
4 | > 100 | COc1c(Cc2ccccc2C(C)C)cc(C(=O)Nc2ccc(S(=O)(=O)c3ccccc3C(C)(C)C)cc2)c(OC)c1OC [N-[(2-Tert-butyl-benzenesulfonyl)-phenyl]-2,3,4-trimethoxyl-5-(2-isopropyl-benzyl)-benzamide]
5 | 5 | O=C(Nc1ccccc1)c1cc(Cc2ccccc2)c(O)c(O)c1O [N-phenyl-2,3,4-trihydroxy-5-benzyl-benzamide]
